Measured values published in ChEMBL document CHEMBL1151780, “Correlation of inhibitor effects on enzyme activity and thermal stability for the integral membrane protein fatty acid amide hydrolase” (Bioorg Med Chem Lett, 2008).

How the values were obtained:
[1] = molecular target: T1, Fatty-acid amide hydrolase 1 (Homo sapiens) (UniProt O00519)
T1 sequence (whole entry): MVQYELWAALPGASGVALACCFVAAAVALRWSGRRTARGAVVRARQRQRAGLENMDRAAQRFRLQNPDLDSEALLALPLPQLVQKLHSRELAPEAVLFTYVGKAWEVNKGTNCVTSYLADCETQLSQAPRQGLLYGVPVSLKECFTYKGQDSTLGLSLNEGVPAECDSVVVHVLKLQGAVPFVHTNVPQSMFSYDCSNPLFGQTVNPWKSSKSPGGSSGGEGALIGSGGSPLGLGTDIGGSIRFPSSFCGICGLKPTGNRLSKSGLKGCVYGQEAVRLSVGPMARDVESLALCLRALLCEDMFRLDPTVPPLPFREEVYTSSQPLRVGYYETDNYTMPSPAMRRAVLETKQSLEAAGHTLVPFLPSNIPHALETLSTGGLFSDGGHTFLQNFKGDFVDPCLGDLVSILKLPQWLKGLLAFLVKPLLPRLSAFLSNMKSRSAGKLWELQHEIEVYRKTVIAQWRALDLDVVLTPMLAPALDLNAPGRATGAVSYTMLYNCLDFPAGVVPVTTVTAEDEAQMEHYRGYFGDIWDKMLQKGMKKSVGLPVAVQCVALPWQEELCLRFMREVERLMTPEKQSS
Description: Binding affinity to FAAH assessed as thermal stability by measuring melting temperature

[2] = molecular target: T2, Fatty-acid amide hydrolase 1 (Homo sapiens, UniProt O00519); test: Inhibition of FAAH at pH 9
T2 sequence (O00519 whole entry): T1 sequence (whole entry)

[3] = molecular target: T2, Fatty-acid amide hydrolase 1; test: Inhibition of FAAH at pH 7.5

Structure (SMILES) | Tm [1] [°C] | Ki [2] [nM] | Ki [3] [nM]
O=C(CCCCCCc1ccccc1)c1ncc(-c2ccccc2)o1 | 47.2 |  | 
O=C(CCCCCCc1ccccc1)c1ncc(-c2ccccn2)o1 | 58.5 |  | 
O=C(O)c1cccc(-c2cnc(C(=O)CCCCCCc3ccccc3)o2)n1 |  |  | 10.4
O=C(CCCCCCc1ccccc1)c1ncc(-c2cccc(-c3nnn[nH]3)n2)o1 | 54.7 | 40 | 
O=C(CCCCCCc1ccccc1)c1nnc(-c2ccccn2)o1 | 60.6 | 0.29 | 

The next lines start with results.

Tm [1] [°C] | Ki [2] [nM] | Structure (SMILES) | Ki [3] [nM]
59.9 |  | O=C(CCc1ccc(-c2ccccc2)cc1)c1ncc(-c2ccccn2)o1 | 
65.3 | 28 | O=C(O)c1cccc(-c2cnc(C(=O)CCc3ccc(-c4ccc(CN5CCSCC5)cc4)cc3)o2)n1 | 
55 |  | NC(=O)c1cccc(-c2cnc(C(=O)CCCCCCc3ccccc3)o2)n1 | 
64.3 | 14 | O=C(O)c1cccc(-c2nnc(C(=O)CCCCCCc3ccccc3)o2)n1 | 
53.4 |  | COC(=O)c1cccc(-c2cnc(C(=O)CCCCCCc3ccccc3)o2)n1 | 
 | 22 | O=C(O)c1cccc(-c2cnc(C(=O)CCc3ccc(-c4ccccc4)cc3)o2)n1 | 
